In patent US8901357B2, “Dibenzoyl peroxide derivatives, preparation method thereof and cosmetic or dermatological compositions containing same” (Galderma Research & Development, priority 2009, dated 2014) one finds MIC data, which are given here for 2 compounds.

The subject of this assay is Propionibacterium acnes. As to the kind of experiment: Sensitivity of peroxides versus dibenzoyl peroxide on Propionibacterium acnes: MIC, dilution method in agar medium (CLSI M11A7). Type of assay: cell-based. The note with it: Cutibacterium acnes, 48 h.
Setting [1] is: P. acnes strain 998, read after 48 hours anaerobic incubation.
[2] abbreviates: P. acnes strain 1044, read after 48 hours anaerobic incubation.
The mark [3] stands for this setting: P. acnes strain 1045, read after 48 hours anaerobic incubation.
Where [4] appears, read: P. acnes strain 1201, read after 48 hours anaerobic incubation.
Setting [5] is: P. acnes strain 3069, read after 48 hours anaerobic incubation.
The mark [6] stands for this setting: P. acnes strain CSS 2913, read after 48 hours anaerobic incubation.
[7] abbreviates: P. acnes strain CSS 2971, read after 48 hours anaerobic incubation.
Setting [8] is: P. acnes strain CSS 3288, read after 48 hours anaerobic incubation.
Where [9] appears, read: P. acnes strain UAA 2281, read after 48 hours anaerobic incubation.
The mark [10] stands for this setting: P. acnes strain UAA 2285, read after 48 hours anaerobic incubation.

Each structure is given as a SMILES string. ≈ marks a conversion by molar mass, not a printed value.

For the compound `O=C(OOC(=O)c1ccccc1)c1ccccc1` [Benzoyl peroxide], the MIC (commonly the lowest concentration found to suppress growth) is, setting by setting: under setting [1], 640 µg/mL (≈ 2640 µM); under setting [2], 640 µg/mL (≈ 2640 µM); under setting [3], 640 µg/mL (≈ 2640 µM); under setting [4], 640 µg/mL (≈ 2640 µM); under setting [5], 640 µg/mL (≈ 2640 µM); under setting [6], 640 µg/mL (≈ 2640 µM). The MIC was found to be 640 µg/mL (≈ 2640 µM) under setting [7], 640 µg/mL (≈ 2640 µM) under setting [8], 640 µg/mL (≈ 2640 µM) under setting [9] and 640 µg/mL (≈ 2640 µM) under setting [10].
As to `CCCCCCCC(=O)c1ccc(OC(C)=O)c(C(=O)OOC(=O)c2ccccc2)c1` [Example 1, (2-acetoxy-5-octanoylbenzoyl)benzoyl peroxide], the minimum inhibitory concentration (MIC) runs as follows: under setting [1], 1280 µg/mL (≈ 3000 µM); under setting [2], 320 µg/mL (≈ 750 µM); under setting [3], 320 µg/mL (≈ 750 µM); under setting [4], 320 µg/mL (≈ 750 µM); under setting [5], 1280 µg/mL (≈ 3000 µM); under setting [6], 320 µg/mL (≈ 750 µM). Moreover, the MIC runs as follows: under setting [7], 320 µg/mL (≈ 750 µM); under setting [8], 320 µg/mL (≈ 750 µM); under setting [9], 320 µg/mL (≈ 750 µM); under setting [10], 320 µg/mL (≈ 750 µM).
